This is an account of results in patent US8389541B2, “Inhibitors of protein tyrosine kinase activity” (MethylGene Inc., priority 2007, dated 2013).

One experiment has as its target T1, VEGF receptor KDR (Homo sapiens, UniProt P35968).
T1 construct: made in house; host or cells: Sf9 cells (Spodoptera frugiperda), baculovirus
Description: In vitro receptor tyrosine kinase assay (DELFIA), VEGF receptor KDR. Type of experiment: biochemical. The settings on record: GST-VEGFR2 806-1356, 0.6 uM ATP; read-out: VEGFR IC50. The text has this: In the case of VEGF receptor KDR a 1.6-kb cDNA corresponding to the catalytic domain of VEGFR2 or KDR (Genbank accession number AF035121 amino acid 806 to 1356) is cloned into the Pst I site of the pDEST20 Gateway vector (Invitrogen) for the production of a GST-tagged version of that enzyme.
The GST-VEGFR2806-1356 protein is expressed in Sf9 cells (Spodoptera frugiperda) upon infection with recombinant baculovirus construct.
The supernatant is loaded onto a GST-agarose column (Sigma) equilibrated with PBS pH 7.3. Following a four column volume (CV) wash with PBS pH 7.3+1% Triton X-100 and 4 CV wash with buffer B (50 mM Tris pH 8.0, 20% glycerol and 100 mM NaCl), bound proteins are step eluted with 5 CV of buffer B supplemented with 5 mM DTT and 15 mM glutathion. […] Final GST-VEGFR2806-1356 protein preparations concentrations are about 0.7 mg/ml with purity approximating 70%.

Another experiment has as its target T2, c-Met (Homo sapiens, UniProt P08581).
T2 construct: endogenous in cells; host or cells: MKN45 gastric carcinoma cells
Put plainly: Inhibition of c-Met phosphorylation in MKN45 cells (direct ELISA). Type of experiment: cell-based. The settings on record: 3 h treatment, read-out: CMET ELISA IN MKN45 IC50. From the text:
The following assay is used to determine inhibition of c-Met phosphorylation.
The c-Met receptor is expressed in numerous cancer cell lines derived from tumors of epithelial origin. In MKN45 gastric carcinoma cells the c-Met gene is amplified, resulting in several-fold overexpression of the receptor and its constitutive activation. For this reason constitutively high levels of ERK1/2 are also detected in these cells, independently of HGF-added stimulation (Smolen G A, Sordella R, Muir B, Mohapatra G, Barmettler A, Archibald H, et al. Amplification of MET may identify a subset of cancers with extreme sensitivity to the selective tyrosine kinase inhibitor PHA-665752. Proc Natl Acad Sci USA 2006). We have developed a sensitive method to follow c-Met phosphorylation in these cells. In previous studies with earlier generation c-Met inhibitors, we established that the IC50s for the inhibition of c-Met phosphorylation were identical using this novel ELISA approach and standard western blot procedure, with antibodies directed against the activating autocatalysis tyrosine residues of c-MET (Tyr Y1230-34-35).
Cell treatments: MKN45 cells are seeded into wells of 96-well plates at a density of 3×10^4 cells/well in RPMI medium supplemented with 10% FBS. HA-TPR-RON expressing 293T (clone 18) cells are seeded into wells of 96-well plates at a density of 3×10^4 cells/well in DMEM medium supplemented with 10% FBS. Cells are grown for 48 h prior to treatments with compounds of interest. Inhibitors are added to the medium in triplicate wells at the indicated doses. After 3 h of treatment, media is aspirated and cells are lysed by one freeze-thaw cycle in 50 μL/well hypotonic lysis buffer (25 mM HEPES pH 7.5, 10 mM NaCl with 1 mM 4-(2-aminoethyl)benzenesulfonyl fluoride hydrochloride, 200 μM sodium orthovanadate, 1 mM sodium fluoride, 10 μg/mL of leupeptin, 10 μg/mL of aprotinin/mL, 1 μg/mL of pepstatin and 50 μg/mL Na-p-tosyl-L-lysine chloromethyl ketone hydrochloride.
Detection of phosphorylated c-Met by direct ELISA: Lysate samples (5 μL) from wells of treatment plates are transferred to 80 μL of binding buffer (25 mM HEPES pH 7.5, 200 mM NaCl) in wells of high binding white polysterene 96-well plates (Corning). After an overnight protein binding incubation at 4° C., lysates are aspirated and wells are blocked for 1 h at 37° C. in TBST supplemented with 5% BSA. Plates are incubated with the primary antibodies anti-phospho-Tyrosine (Millipore, 4G10) diluted 1/15000 in TBST supplemented with 5% BSA for 1 h at room temperature. Plates are washed 3 times on a plate washer (SkanWasher, Molecular Devises), and incubated with the reporter antibody […] (Sigma) diluted 1/15000 in TBST supplemented with 5% BSA, for 1 h at room temperature. Plates are washed 3 times with TBST using on a plate washer and subsequently incubated with chemiluminescent substrate solution (ECL, Roche). Luminescence signal is captured on a Polar Star Optima apparatus (BMG LabTech).
Average values of the triplicate samples are used to prepare IC50 curves using a 4-parameter fit model. These curves are calculated using, for example, GraFit 5.0 software. For assay standardization purpose, an internal control is included on each experimental test plate.
In general terms: An ELISA detects its analyte on a solid surface through an enzyme-linked reagent.

The subject of another experiment is A549 cells. Description: Wound healing assay in A549 cells (HGF-stimulated). It is filed as cell-based. The settings on record: Homo sapiens, last dose that inhibited gap closing by more than 25%, 24 h, read-out: A549 WOUND_HEALING IC50. Here is the method:
Wound healing assay in A549 cells. A549 cells (ATCC) are seeded in DMEM low glucose medium complemented with 10% FBS into 24-well plates at a density of 7.5×10^4 cells/well and grown to confluence (48 h). Inhibitors were added to the medium at a range of doses (0.00032-10 uM) for 3 h at which point a gap is introduced by scraping cells with a P1000 pipette tip. Cells are then stimulated to migrate by the addition of HGF (in the form of conditioned medium from 293T cells over-expressing the human HGF gene) and the culture is continued for 24 h. […] For the purpose of standardization, a control is carried on every assay plates.

The target of experiment [1] is recombinant human c-Met/HGF receptor (Homo sapiens, UniProt P08581). Put plainly: In vitro receptor tyrosine kinase assay (DELFIA), c-Met/HGF receptor.
Sequence of recombinant human c-Met/HGF receptor (P08581 1078-1337): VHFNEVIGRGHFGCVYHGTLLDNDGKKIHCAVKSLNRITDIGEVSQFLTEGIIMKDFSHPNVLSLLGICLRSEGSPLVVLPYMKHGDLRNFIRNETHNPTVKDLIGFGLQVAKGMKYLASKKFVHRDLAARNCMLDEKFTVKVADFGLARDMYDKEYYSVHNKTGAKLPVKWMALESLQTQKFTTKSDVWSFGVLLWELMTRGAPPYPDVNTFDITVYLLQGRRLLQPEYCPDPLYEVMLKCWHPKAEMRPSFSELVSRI
The test system of a further experiment is DU145 cells. Description: Scatter assay in DU145 cells (HGF-stimulated). It is filed as cell-based. The settings on record: Homo sapiens, DU-145, last dose that created an inhibitory effect on scattering, 24 h, read-out: DU145 SCATT. INHIB IC50. Here is the method: Scatter assays in DU145. The scatter assay is performed as described previously (Miura H, Nishimura K, Tsujimura A, Matsumiya K, Matsumoto K, Nakamura T, et al. Effects of hepatocyte growth factor on E-cadherin-mediated cell-cell adhesion in DU145 prostate cancer cells. Urology 2001; 58(6):1064-9) for DU145 prostate carcinoma cells with the indicated modifications. In brief, DU145 cells (ATCC) are seeded in 24-well plates at a density of 7×10^3 cells/well in MEM medium complemented with 10% FBS and cultured for 48 h, to allow the formation of small compact colonies of cells. Inhibitors are subsequently added at a range of doses (0.00032-10 uM) for 3 h. Cells are then stimulated to migrate by the addition of HGF (in the form of conditioned medium from 293T cells over-expressing the human HGF gene) and the culture is continued for another 24 h. The IC50 values is defined as the last dose that created an inhibitory effect on scattering. For the purpose of standardization a control is carried on every test plates for the DU145 scattering assays.

Where only a bound is given, the exact number is not on record here.

T2 sequence (P08581 25-1390): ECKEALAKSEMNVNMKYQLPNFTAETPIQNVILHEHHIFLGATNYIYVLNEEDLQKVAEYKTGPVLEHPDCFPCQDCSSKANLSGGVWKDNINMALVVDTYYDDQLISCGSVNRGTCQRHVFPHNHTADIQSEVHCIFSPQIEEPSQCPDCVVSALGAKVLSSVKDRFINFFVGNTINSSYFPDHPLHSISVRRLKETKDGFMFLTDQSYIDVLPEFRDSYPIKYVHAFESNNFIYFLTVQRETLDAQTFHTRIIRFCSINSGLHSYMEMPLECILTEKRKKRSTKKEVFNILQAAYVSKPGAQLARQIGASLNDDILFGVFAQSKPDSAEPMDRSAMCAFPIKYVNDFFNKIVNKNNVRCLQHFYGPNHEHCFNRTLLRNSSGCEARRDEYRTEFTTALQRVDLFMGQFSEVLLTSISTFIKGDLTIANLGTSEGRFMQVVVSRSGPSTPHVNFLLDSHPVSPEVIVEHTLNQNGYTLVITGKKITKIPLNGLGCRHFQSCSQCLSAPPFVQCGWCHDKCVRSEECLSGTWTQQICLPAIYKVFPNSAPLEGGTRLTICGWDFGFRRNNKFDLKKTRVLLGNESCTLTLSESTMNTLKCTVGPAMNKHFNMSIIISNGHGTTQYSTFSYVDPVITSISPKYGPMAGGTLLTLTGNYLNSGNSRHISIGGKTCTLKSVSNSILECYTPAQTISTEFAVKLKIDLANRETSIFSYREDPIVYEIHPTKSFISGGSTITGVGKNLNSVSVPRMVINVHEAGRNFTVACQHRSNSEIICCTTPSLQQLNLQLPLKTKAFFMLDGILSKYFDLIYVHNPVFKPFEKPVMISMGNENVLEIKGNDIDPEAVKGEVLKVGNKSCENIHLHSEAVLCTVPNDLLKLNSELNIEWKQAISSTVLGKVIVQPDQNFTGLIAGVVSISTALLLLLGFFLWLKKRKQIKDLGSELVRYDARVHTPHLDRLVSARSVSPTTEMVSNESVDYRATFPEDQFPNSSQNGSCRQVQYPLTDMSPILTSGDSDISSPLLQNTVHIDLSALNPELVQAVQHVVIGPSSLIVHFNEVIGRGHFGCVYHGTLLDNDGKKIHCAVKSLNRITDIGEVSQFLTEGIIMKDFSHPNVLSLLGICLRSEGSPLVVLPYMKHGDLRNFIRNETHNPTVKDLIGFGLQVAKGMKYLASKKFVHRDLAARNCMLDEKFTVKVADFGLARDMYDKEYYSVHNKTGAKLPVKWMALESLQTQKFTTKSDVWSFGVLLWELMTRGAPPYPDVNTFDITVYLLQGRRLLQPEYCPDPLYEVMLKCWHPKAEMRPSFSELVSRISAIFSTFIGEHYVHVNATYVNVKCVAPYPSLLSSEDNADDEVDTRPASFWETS
T1 sequence (P35968 806-1356): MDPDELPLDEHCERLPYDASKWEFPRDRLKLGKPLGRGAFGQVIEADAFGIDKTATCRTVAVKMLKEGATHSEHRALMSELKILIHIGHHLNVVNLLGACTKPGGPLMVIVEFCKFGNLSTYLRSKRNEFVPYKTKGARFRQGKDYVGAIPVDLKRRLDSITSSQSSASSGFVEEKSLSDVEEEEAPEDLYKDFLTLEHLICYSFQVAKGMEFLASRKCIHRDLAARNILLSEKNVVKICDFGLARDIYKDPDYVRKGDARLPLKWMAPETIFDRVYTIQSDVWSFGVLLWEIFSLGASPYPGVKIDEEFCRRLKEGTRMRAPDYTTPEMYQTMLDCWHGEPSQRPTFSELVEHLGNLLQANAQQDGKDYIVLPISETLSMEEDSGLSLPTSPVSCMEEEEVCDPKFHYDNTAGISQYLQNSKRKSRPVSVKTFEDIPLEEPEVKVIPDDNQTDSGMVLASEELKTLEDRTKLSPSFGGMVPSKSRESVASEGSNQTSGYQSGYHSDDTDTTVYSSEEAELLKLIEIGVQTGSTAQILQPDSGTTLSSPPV

As for `COCCNCCc1ccc(-c2cc3nccc(Oc4ccc(NC(=O)CC(=O)Nc5ccccc5)cc4F)c3s2)cc1`, the 50% inhibitory concentration (IC50) (in general, the point on the concentration scale where inhibition reaches its midpoint) was less than 250 nM on VEGF receptor KDR; 250 to 500 nM on c-Met; 250 to 500 nM with A549 cells; less than 250 nM in experiment [1]; 250 to 500 nM with DU145 cells.
`COCCNCc1cccc(-c2cc3nccc(Oc4ccc(NC(=O)Nc5cc(C(F)(F)F)ccc5F)cc4F)c3s2)n1`: the IC50 (at VEGF receptor KDR; in experiment [1]) was less than 250 nM in each case.
Regarding `COCCNC(=O)c1ccc(-c2cc3nccc(Oc4ccc(NC(=S)NC(=O)Cc5ccccc5)cc4F)c3s2)cc1`, the IC50 was less than 250 nM on VEGF receptor KDR; less than 250 nM on c-Met; greater than 1000 nM in the experiment on A549 cells; less than 250 nM in experiment [1]; 250 to 500 nM with DU145 cells.
In the case of `CSCCNCc1ccc(-c2cc3nccc(Oc4ccc(NC(=S)NC(=O)Cc5ccc(F)cc5)cc4F)c3s2)cc1`, the IC50 was less than 250 nM on VEGF receptor KDR; less than 250 nM on c-Met; greater than 1000 nM in the experiment on A549 cells; less than 250 nM in experiment [1]; 250 to 500 nM with DU145 cells.
Take `COCCNCc1ccc(-c2cc3nccc(Oc4ccc(NC(=S)NC(=O)Cc5ccccc5)cc4F)c3s2)s1`: the IC50 was less than 250 nM at VEGF receptor KDR; less than 250 nM on c-Met; greater than 1000 nM in the experiment with A549 cells; less than 250 nM in experiment [1]; 250 to 500 nM in the experiment on DU145 cells.
Consider `COCCNCc1cccc(-c2cc3nccc(Oc4ccc(NC(=O)NC5CC5)cc4F)c3s2)n1`, for which the IC50 (on VEGF receptor KDR; in experiment [1]) was 250 to 500 nM in each case.
As for `COCCNCc1ccc(-c2cc3nccc(Oc4ccc(NC(=S)NC(=O)Cc5ccccc5)cc4F)c3s2)cn1` [drawing 308], the IC50 at VEGF receptor KDR was 250 to 500 nM; on c-Met, less than 250 nM; in the experiment with A549 cells, 250 to 500 nM; in experiment [1], less than 250 nM; in the experiment on DU145 cells, 250 to 500 nM.
Consider `O=C(Cc1ccc(F)cc1)NC(=S)Nc1ccc(Oc2ccnc3cc(-c4ccc(CNC5CC5)cc4)sc23)c(F)c1`, for which the IC50 was less than 250 nM at VEGF receptor KDR; less than 250 nM at c-Met; 250 to 500 nM in the experiment on A549 cells; less than 250 nM in experiment [1]; 250 to 500 nM in the experiment on DU145 cells.
`CN(C(=O)CC(=O)Nc1ccc(Oc2ccnc3cc(-c4ccc(CNCCS(C)(=O)=O)cc4)sc23)c(F)c1)c1ccccc1` [drawing 347]: the half-inhibitory concentration (IC50) at VEGF receptor KDR was less than 250 nM; on c-Met, less than 250 nM; in the experiment with A549 cells it was 250 to 500 nM; in experiment [1], less than 250 nM; in the experiment with DU145 cells, 250 to 500 nM.
As for `COCCNCc1ccc(-c2cc3nccc(Oc4ccc(NC(=S)NC(=O)Cc5ccccc5OC)cc4F)c3s2)nc1` [drawing 311], the IC50 on VEGF receptor KDR is less than 250 nM; on c-Met, less than 250 nM; in the experiment on A549 cells it was 250 to 500 nM; in experiment [1] it was less than 250 nM; in the experiment with DU145 cells it was 250 to 500 nM.
Consider `COCCNCc1ccc(-c2cc3nccc(Oc4ccc(NC(=O)C5(C(=O)Nc6ccc(F)cc6)CC5)cc4F)c3s2)nc1` [drawing 354], for which the IC50 on VEGF receptor KDR, in the experiment on A549 cells and with DU145 cells was less than 250 nM in each case.
`CSCCNCc1ccc(-c2cc3nccc(Oc4ccc(NC(=S)NC(=O)Cc5ccccc5)cc4F)c3s2)cc1`: the IC50 on VEGF receptor KDR was less than 250 nM; on c-Met, less than 250 nM; with A549 cells it was 250 to 500 nM; in experiment [1] it was less than 250 nM; in the experiment on DU145 cells it was 250 to 500 nM.
Regarding `COCCNCc1cnc(-c2cc3nccc(Oc4ccc(NC(=O)Nc5cc(C)on5)cc4F)c3s2)n1C`, the IC50 at VEGF receptor KDR was less than 250 nM.
On to `O=C(Nc1ccccc1)C1(C(=O)Nc2ccc(Oc3ccnc4cc(-c5ccc(CNCC(F)(F)F)cc5)sc34)c(F)c2)CC1`, for which the IC50 (on VEGF receptor KDR; on c-Met; with A549 cells; in experiment [1]; with DU145 cells) was less than 250 nM each time.
Turning to `COCCNCc1ccc(-c2cc3nccc(Oc4ccc(NC(=O)C5(C(=O)Nc6ccccc6OC)CC5)cc4F)c3s2)cc1`, the IC50 at VEGF receptor KDR was less than 250 nM; at c-Met, 500 to 1000 nM; in the experiment on A549 cells it was 250 to 500 nM; in experiment [1], less than 250 nM; with DU145 cells, 250 to 500 nM.
With `COCCNCc1ccc(-c2cc3nccc(Oc4ccc(NC(=S)NC(=O)Cc5ccccc5)cc4F)c3s2)nc1`, the IC50 (on VEGF receptor KDR; at c-Met; with A549 cells; in experiment [1]; in the experiment with DU145 cells) was less than 250 nM throughout.
Take `COCCNCc1cccc(-c2cc3nccc(Oc4ccc(NC(=O)CC(=O)Nc5ccccc5)cc4F)c3s2)c1`: the IC50 on VEGF receptor KDR is less than 250 nM; on c-Met it was 250 to 500 nM; in the experiment with A549 cells, 250 to 500 nM; in experiment [1], less than 250 nM; with DU145 cells it was 250 to 500 nM.
Take `COCCNCc1ccc(-c2cc3nccc(Oc4ccc(NC(=O)CC(=O)Nc5ccc(F)cc5)cc4F)c3s2)nc1`: the IC50 was less than 250 nM at VEGF receptor KDR; less than 250 nM at c-Met; less than 250 nM in the experiment with A549 cells; less than 250 nM in experiment [1]; 250 to 500 nM in the experiment on DU145 cells.
In the case of `COC[C@H](C)NCc1ccc(-c2cc3nccc(Oc4ccc(NC(=O)C5(C(=O)Nc6ccccc6)CC5)cc4F)c3s2)cc1`, the IC50 (at VEGF receptor KDR; at c-Met; in the experiment on A549 cells; in experiment [1]; in the experiment with DU145 cells) was less than 250 nM throughout.
Regarding `COCCNCc1cnc(-c2cc3nccc(Oc4ccc(NC(=O)NC5CC5)cc4F)c3s2)n1C`, the IC50 on VEGF receptor KDR was less than 250 nM; in experiment [1], 250 to 500 nM.
On to `COCCN(Cc1cnc(-c2cc3nccc(Oc4ccc(NC(=O)NC5CC5)cc4F)c3s2)n1C)C(=O)OCc1ccccc1`, for which the IC50 in experiment [1] is greater than 1000 nM.
